Numbered stars: 1 amine (or outer) side, 2 acyl side, 3 side chain; on linkers, the order of the positions; unused ones are H or OH. Square brackets hold non-standard residues; d marks the D form. Side chains are listed from the residue outwards. Peptide text beside a SMILES is read from it. * marks the point of attachment. C20 diacid = O=C(O)CCCCCCCCCCCCCCCCCCC(=O)*; αMePhe(2-F) = C[C@](N)(Cc1ccccc1F)C(=O)O; γGlu = O=C(O)[C@H](CCC(=O)[*:2])N[*:1]; αMeF = C[C@](N)(Cc1ccccc1)C(=O)O; Aad = N[C@@H](CCCC(=O)O)C(=O)O; αMeL = CC(C)C[C@](C)(N)C(=O)O; AEEA = NCCOCCOCC(=O)O; Aib = CC(C)(N)C(=O)O
How the values were obtained:
[1] = molecular target: T1, gastric inhibitory peptide receptor (GIPR) (Homo sapiens, UniProt P48546); experiment: cAMP pharmacological functional assay in presence of casein, hGIPR; type: cell-based; settings: HEK293 cells expressing hGIPR, 0.1% Casein, geometric mean; read-out: hGIPR cAMP Rel EC50 nM (SEM, n)
T1 sequence (P48546 22-466): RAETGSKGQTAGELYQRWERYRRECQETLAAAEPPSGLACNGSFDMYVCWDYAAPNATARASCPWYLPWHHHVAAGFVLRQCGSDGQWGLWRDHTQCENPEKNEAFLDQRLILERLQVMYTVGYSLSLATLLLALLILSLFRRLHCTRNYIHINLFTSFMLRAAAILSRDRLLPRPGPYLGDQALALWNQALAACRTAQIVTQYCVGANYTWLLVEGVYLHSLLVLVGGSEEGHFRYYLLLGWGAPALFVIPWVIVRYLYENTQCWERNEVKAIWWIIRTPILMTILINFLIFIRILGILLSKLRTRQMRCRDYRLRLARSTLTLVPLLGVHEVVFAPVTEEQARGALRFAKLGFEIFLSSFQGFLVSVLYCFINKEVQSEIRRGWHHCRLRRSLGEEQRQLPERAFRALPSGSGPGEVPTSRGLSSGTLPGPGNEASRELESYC

human Gcg receptor = molecular target: T2, human Gcg receptor (Homo sapiens, UniProt P47871); experiment: [125I]-Glucagon binding (SPA), human Gcg receptor; settings: read-out: hGLcgR Ki, nM (SEM, n)
T2 construct: expressed in transfected cells; crude membranes
T2 sequence (P47871 26-477): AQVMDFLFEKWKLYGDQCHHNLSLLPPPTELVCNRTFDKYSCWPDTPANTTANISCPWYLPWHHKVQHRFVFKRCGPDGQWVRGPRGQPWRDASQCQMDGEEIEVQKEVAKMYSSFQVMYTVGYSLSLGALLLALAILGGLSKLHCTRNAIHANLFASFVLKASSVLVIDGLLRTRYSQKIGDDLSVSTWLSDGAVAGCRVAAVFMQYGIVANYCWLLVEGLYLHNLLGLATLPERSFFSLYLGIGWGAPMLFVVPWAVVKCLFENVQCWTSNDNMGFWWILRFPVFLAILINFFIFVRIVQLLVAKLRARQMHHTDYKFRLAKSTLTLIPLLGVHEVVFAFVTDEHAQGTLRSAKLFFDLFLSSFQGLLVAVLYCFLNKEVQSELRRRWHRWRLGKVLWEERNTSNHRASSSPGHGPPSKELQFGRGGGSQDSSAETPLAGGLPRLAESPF
Summary of the method: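 Scintillation counts are taken after membranes and WGA beads incubate and settle for 12 hours at room temperature. Buffer is 25 mM HEPES, pH 7.4, with CaCl2, MgCl2, bacitracin and Tween-20. Ki values, from four-parameter IC50 fits, are geometric means over independent days.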

human GLP-1R = human GLP-1R (Homo sapiens, UniProt P43220); experiment: [125I]-GLP-1 binding (SPA), human GLP-1 receptor; parameters: expressed in transfected cells; crude membranes; settings: read-out: hGLP1R Ki, (nM) (SEM, n)
human GLP-1R, sequence (P43220 24-463): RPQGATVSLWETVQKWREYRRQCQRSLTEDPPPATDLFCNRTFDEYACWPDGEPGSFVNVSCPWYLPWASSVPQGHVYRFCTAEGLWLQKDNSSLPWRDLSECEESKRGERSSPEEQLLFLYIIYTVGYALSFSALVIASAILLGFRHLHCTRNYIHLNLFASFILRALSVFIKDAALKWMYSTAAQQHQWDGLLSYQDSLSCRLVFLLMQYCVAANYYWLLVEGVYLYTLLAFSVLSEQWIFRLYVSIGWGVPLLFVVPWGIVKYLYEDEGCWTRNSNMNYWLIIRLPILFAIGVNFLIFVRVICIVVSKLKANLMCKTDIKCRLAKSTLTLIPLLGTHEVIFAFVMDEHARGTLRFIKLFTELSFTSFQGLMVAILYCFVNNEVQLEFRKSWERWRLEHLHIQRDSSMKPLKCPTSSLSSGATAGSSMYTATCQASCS
Summary of the method: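 Assay buffer: HEPES 25 mM, pH 7.4, CaCl2 2.5 mM, MgCl2 1 mM, with EDTA-free protease inhibitors. Receptor came from crude cell membranes prepared by homogenization and centrifugation at 4° C. IC50s came from four-parameter fits (maximum, minimum, IC50, Hill slope) and were expressed as Ki geometric means with SEM.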

[2] = molecular target: human GLP-1 receptor (GLP-1R) (Homo sapiens, UniProt P43220); experiment: cAMP pharmacological functional assay in presence of casein, hGLP-1R; type: cell-based; settings: HEK293 cells expressing hGLP-1R, 0.1% Casein, geometric mean; read-out: hGLP1R cAMP Rel EC50 nM (SEM, n)
human GLP-1 receptor (GLP-1R), sequence (P43220 24-463): as above

human GIP receptor = molecular target: T3, human GIP receptor (Homo sapiens, UniProt P48546); experiment: [125I]-GIP binding (SPA), human GIP receptor; settings: read-out: hGIPR Ki, nM (SEM, n)
T3 construct: expressed in transfected cells; crude membranes
T3 sequence (P48546 22-466): T1 sequence (P48546 22-466)

SMILES | EC50 [1] | Ki (human Gcg receptor) | Ki (human GLP-1R) | EC50 [2] | Ki (human GIP receptor)
CC[C@H](C)[C@H](NC(=O)[C@H](CC(C)C)NC(=O)[C@H](Cc1ccc(O)cc1)NC(=O)[C@H](CCC(=O)O)NC(=O)[C@@H](NC(=O)[C@H](Cc1ccccc1)NC(=O)[C@H](Cc1c[nH]cn1)NC(=O)C(C)(C)NC(=O)[C@H](CCC(N)=O)NC(=O)[C@H](C)NC(=O)[C@H](CCCCNC(=O)COCCOCCNC(=O)COCCOCCNC(=O)CC[C@H](NC(=O)CCCCCCCCCCCCCCCCCCC(=O)O)C(=O)O)NC(=O)[C@H](CCCCN)NC(=O)[C@H](CC(=O)O)NC(=O)[C@H](CC(C)C)NC(=O)[C@](C)(CC(C)C)NC(=O)[C@@H](NC(=O)[C@H](CO)NC(=O)[C@H](Cc1ccc(O)cc1)NC(=O)[C@H](CC(=O)O)NC(=O)[C@H](CO)NC(=O)[C@@H](NC(=O)[C@](C)(Cc1ccccc1)NC(=O)[C@@H](NC(=O)CNC(=O)[C@H](CCC(=O)O)NC(=O)C(C)(C)NC(=O)[C@@H](N)Cc1ccc(O)cc1)[C@@H](C)O)[C@@H](C)O)[C@@H](C)CC)[C@@H](C)CC)C(=O)N[C@@H](CCC(=O)O)C(=O)NCC(=O)NCC(=O)N1CCC[C@H]1C(=O)N[C@@H](CO)C(=O)N[C@@H](CO)C(=O)NCC(=O)N[C@@H](C)C(=O)N1CCC[C@H]1C(=O)N1CCC[C@H]1C(=O)N1CCC[C@H]1C(=O)N[C@@H](CO)C(N)=O [Example 142] (H-Y[Aib]EGT[αMeF]TSDYSI[αMeL]LDKK([AEEA-AEEA-γGlu-C20 diacid])AQ[Aib]HFIEYLIEGGPSSGAPPPS-NH2; N-terminus assumed) | 0.0489 nM | 53.1 nM | 1.06 nM | 0.0426 nM | 0.0275 nM
CC[C@H](C)[C@H](NC(=O)[C@H](CC(C)C)NC(=O)[C@H](Cc1ccc(O)cc1)NC(=O)[C@H](CCC(=O)O)NC(=O)[C@@H](NC(=O)[C@H](Cc1ccccc1)NC(=O)C(C)(C)NC(=O)C(C)(C)NC(=O)[C@H](CCC(N)=O)NC(=O)[C@H](C)NC(=O)[C@H](CCCCNC(=O)COCCOCCNC(=O)COCCOCCNC(=O)CC[C@H](NC(=O)CCCCCCCCCCCCCCCCCCC(=O)O)C(=O)O)NC(=O)[C@H](CCCCN)NC(=O)[C@H](CC(=O)O)NC(=O)[C@H](CC(C)C)NC(=O)[C@](C)(CC(C)C)NC(=O)[C@@H](NC(=O)[C@H](CO)NC(=O)[C@H](Cc1ccc(O)cc1)NC(=O)[C@H](CC(=O)O)NC(=O)[C@H](CO)NC(=O)[C@@H](NC(=O)[C@](C)(Cc1ccccc1)NC(=O)[C@@H](NC(=O)CNC(=O)[C@H](CCC(=O)O)NC(=O)C(C)(C)NC(=O)[C@@H](N)Cc1ccc(O)cc1)[C@@H](C)O)[C@@H](C)O)[C@@H](C)CC)[C@@H](C)CC)C(=O)N[C@@H](CCC(=O)O)C(=O)NCC(=O)NCC(=O)N1CCC[C@H]1C(=O)N[C@@H](CO)C(=O)N[C@@H](CO)C(=O)NCC(=O)N[C@@H](C)C(=O)N1CCC[C@H]1C(=O)N1CCC[C@H]1C(=O)N1CCC[C@H]1C(=O)N[C@@H](CO)C(N)=O [Example 143] (H-Y[Aib]EGT[αMeF]TSDYSI[αMeL]LDKK([AEEA-AEEA-γGlu-C20 diacid])AQ[Aib][Aib]FIEYLIEGGPSSGAPPPS-NH2) | 0.0515 nM | 65.5 nM | 1.15 nM | 0.0745 nM | 0.0304 nM
CC[C@H](C)[C@H](NC(=O)[C@H](CC(C)C)NC(=O)[C@H](Cc1ccc(O)cc1)NC(=O)[C@H](CCC(=O)O)NC(=O)[C@@H](NC(=O)[C@H](Cc1ccccc1)NC(=O)C(C)(C)NC(=O)[C@H](Cc1c[nH]cn1)NC(=O)[C@H](CCC(N)=O)NC(=O)[C@H](C)NC(=O)[C@H](CCCCNC(=O)COCCOCCNC(=O)COCCOCCNC(=O)CC[C@H](NC(=O)CCCCCCCCCCCCCCCCCCC(=O)O)C(=O)O)NC(=O)[C@H](CCCCN)NC(=O)[C@H](CC(=O)O)NC(=O)[C@H](CC(C)C)NC(=O)[C@](C)(CC(C)C)NC(=O)[C@@H](NC(=O)[C@H](CO)NC(=O)[C@H](Cc1ccc(O)cc1)NC(=O)[C@H](CC(=O)O)NC(=O)[C@H](CO)NC(=O)[C@@H](NC(=O)[C@](C)(Cc1ccccc1)NC(=O)[C@@H](NC(=O)CNC(=O)[C@H](CCC(=O)O)NC(=O)C(C)(C)NC(=O)[C@@H](N)Cc1ccc(O)cc1)[C@@H](C)O)[C@@H](C)O)[C@@H](C)CC)[C@@H](C)CC)C(=O)N[C@@H](CCC(=O)O)C(=O)NCC(=O)NCC(=O)N1CCC[C@H]1C(=O)N[C@@H](CO)C(=O)N[C@@H](CO)C(=O)NCC(=O)N[C@@H](C)C(=O)N1CCC[C@H]1C(=O)N1CCC[C@H]1C(=O)N1CCC[C@H]1C(=O)N[C@@H](CO)C(N)=O [Example 144] (H-Y[Aib]EGT[αMeF]TSDYSI[αMeL]LDKK([AEEA-AEEA-γGlu-C20 diacid])AQH[Aib]FIEYLIEGGPSSGAPPPS-NH2) | 0.0375 nM | 77 nM | 1.78 nM | 0.0608 nM | 0.0341 nM
CC[C@H](C)[C@H](NC(=O)[C@H](CC(C)C)NC(=O)[C@H](Cc1ccc(O)cc1)NC(=O)[C@H](CCC(=O)O)NC(=O)[C@@H](NC(=O)[C@H](Cc1ccccc1)NC(=O)[C@H](C)NC(=O)C(C)(C)NC(=O)[C@H](CCC(N)=O)NC(=O)[C@H](C)NC(=O)[C@H](CCCCNC(=O)COCCOCCNC(=O)COCCOCCNC(=O)CC[C@H](NC(=O)CCCCCCCCCCCCCCCCCCC(=O)O)C(=O)O)NC(=O)[C@H](CCCCN)NC(=O)[C@H](CC(=O)O)NC(=O)[C@H](CC(C)C)NC(=O)[C@](C)(CC(C)C)NC(=O)[C@@H](NC(=O)[C@H](CO)NC(=O)[C@H](C)NC(=O)[C@H](CC(=O)O)NC(=O)[C@H](CO)NC(=O)[C@@H](NC(=O)[C@](C)(Cc1ccccc1)NC(=O)[C@@H](NC(=O)CNC(=O)[C@H](CCC(=O)O)NC(=O)C(C)(C)NC(=O)[C@@H](N)Cc1ccc(O)cc1)[C@@H](C)O)[C@@H](C)O)[C@@H](C)CC)[C@@H](C)CC)C(=O)N[C@@H](CCC(=O)O)C(=O)NCC(=O)NCC(=O)N1CCC[C@H]1C(=O)N[C@@H](CO)C(=O)N[C@@H](CO)C(=O)NCC(=O)N[C@@H](C)C(=O)N1CCC[C@H]1C(=O)N1CCC[C@H]1C(=O)N1CCC[C@H]1C(=O)N[C@@H](CO)C(N)=O [Example 145] (H-Y[Aib]EGT[αMeF]TSDASI[αMeL]LDKK([AEEA-AEEA-γGlu-C20 diacid])AQ[Aib]AFIEYLIEGGPSSGAPPPS-NH2) | 0.0514 nM | 158 nM | 2.22 nM | 0.0427 nM | 0.0652 nM
CC[C@H](C)[C@H](NC(=O)[C@H](CC(C)C)NC(=O)[C@H](Cc1ccc(O)cc1)NC(=O)[C@H](CCCC(=O)O)NC(=O)[C@@H](NC(=O)[C@H](Cc1ccccc1)NC(=O)[C@H](CCC(=O)O)NC(=O)C(C)(C)NC(=O)[C@H](CCC(N)=O)NC(=O)[C@H](C)NC(=O)[C@H](CCCCNC(=O)COCCOCCNC(=O)COCCOCCNC(=O)CC[C@H](NC(=O)CCCCCCCCCCCCCCCCCCC(=O)O)C(=O)O)NC(=O)[C@H](CCC(=O)O)NC(=O)[C@H](CC(=O)O)NC(=O)[C@H](CC(C)C)NC(=O)[C@](C)(CC(C)C)NC(=O)[C@@H](NC(=O)[C@H](CO)NC(=O)[C@H](Cc1ccc(O)cc1)NC(=O)[C@H](CC(=O)O)NC(=O)[C@H](CO)NC(=O)[C@@H](NC(=O)[C@](C)(Cc1ccccc1F)NC(=O)[C@@H](NC(=O)CNC(=O)[C@H](CCC(=O)O)NC(=O)C(C)(C)NC(=O)[C@@H](N)Cc1ccc(O)cc1)[C@@H](C)O)[C@@H](C)O)[C@@H](C)CC)[C@@H](C)CC)C(=O)N[C@@H](CCC(=O)O)C(=O)NCC(=O)NCC(=O)N1CCC[C@H]1C(=O)N[C@@H](CO)C(=O)N[C@@H](CO)C(=O)NCC(=O)N[C@@H](C)C(=O)N1CCC[C@H]1C(=O)N1CCC[C@H]1C(=O)N1CCC[C@H]1C(=O)N[C@@H](CO)C(N)=O [Example 147] (H-Y[Aib]EGT[αMePhe(2-F)]TSDYSI[αMeL]LDEK([AEEA-AEEA-γGlu-C20 diacid])AQ[Aib]EFI[Aad]YLIEGGPSSGAPPPS-NH2) | 0.0304 nM | 64.9 nM | 4.47 nM | 0.0527 nM | 0.0981 nM
